Measured values: patent US8394592B2, “Methods for assessing cancer susceptibility to carcinogens in tobacco products” (The Board of Regents of the University of Texas System, priority 2006, dated 2013)
“And” between values parts separate entries of the source, which are not always exact repeats. Equal values may be shown once.

Test system: peripheral blood lymphocytes
Test: Cytokinesis-block micronucleus (CBMN) assay, NNK-treated lymphocyte cultures of lung cancer cases and controls
Format: cell-based, human
Set-up: Control Subjects, % with ≧5 NNK-induced MN / Control Subjects, % with 0 or 2 NNK-induced NPBs / Control Subjects, % with 3 or 5 NNK-induced NPBs / Control Subjects, % with 1 NNK-induced NBUDs: concentration or dose not given beside the values; Control Subjects, % with 3 or 4 NNK-induced MN: tested at 0.24 mM
Conditions: for NNK-induced NPBs, Mean ± SE / NNK-induced NPBs, Median / NNK-induced MN, Mean ± SE / NNK-induced MN, Median / NNK-induced NBUDs, Mean ± SE / NNK-induced NBUDs, Median: Control, 0.24 mM NNK
Description: The CBMN test was performed using the cytochalasin B technique described by Fenech and Morley (22) and following recommendations from The International Collaborative Project on Micronucleus Frequency in Human Populations (HUMN Project) to measure MN, NPBs and NBUDs in untreated cells and NNK-treated cells (27). Duplicate lymphocyte cultures were prepared for each study subject. Each culture contained 2.0×10^6 cells in 5 mL RPMI 1640 medium supplemented with 100 U/mL penicillin, 100 μg/mL streptomycin, 10% fetal bovine serum, and 2 mM L-glutamine (Gibco-Invitrogen, Carlsbad, Calif.) and 1% phytohemagglutinin (Remel, Lenexa, Kans.). For the cultures treated with NNK, 24 hours after initiation, the PBLs were centrifuged and the supernatant growth medium was removed and reserved. The PBLs were resuspended in 5 mL of serum-free RPMI 1640 medium supplemented with 0.24 mM NNK (a dose previously used by us and others (23-26) (CAS No. 64091-91-4, National Cancer Institute, Midwest Carcinogen Repository, Kansas City, Mo.; purity>98%) and incubated at 37° C. in the presence of 5% CO2 for 2 hours.
Next, the PBLs were washed twice with serum-free RPMI 1640, transferred to clean tubes and re-incubated for […] in the reserved supernatant. At 44 hours after initiation, cells were blocked in cytokinesis by adding cytochalasin B (Sigma, St. Louis, Mo.; final concentration 4 µg/mL). Similarly, cultures for the determination of spontaneous damage (untreated cells) were handled in the same manner, with the exception of treatment with NNK. The total incubation time for all cultures was 72 hours. After incubation, the cells were fixed in 3:1 methanol:glacial acetic acid, dropped onto clean microscopic slides, air-dried and stained with Giemsa stain. For each sample, 1000 binucleated cells were scored blindly using a Nikon E-400 light optical microscope following the scoring criteria outlined by HUMN Project (2,22,27); the numbers of MN, NPBs, and NBUDs per 1000 binucleated cells were recorded. For quality control, 20% of the slides were randomly selected and blindly rescored and the results compared with the original scoring.

[1] = MN/1000 binucleated cells, 130 controls
[2] = MN/1000 binucleated cells, 139 cases
[3] = lymphocytes from patients with lung cancer vs controls
[4] = per 1000 binucleated cells, 130 controls
[5] = per 1000 binucleated cells, 139 cases

SMILES: CN(CCCC(=O)c1cccnc1)N=O [NNK, 4-(methylnitrosamino)-1-(3-pyridyl)-1-butanone]
- NNK-induced NPBs, Mean ± SE (Females): 2.68 ± 0.19 per 1000 binucleated cells
- NNK-induced NPBs, Median (Females): 2.0 per 1000 binucleated cells
- NNK-induced MN, Mean ± SE (History of Alcohol Use No): 2.54 ± 0.15 per 1000 binucleated cells
- NNK-induced MN, Median (History of Alcohol Use No): 3.00 per 1000 binucleated cells
- NNK-induced NBUDs, Mean ± SE (History of Alcohol Use No): 0.14 ± 0.04 per 1000 binucleated cells
- NNK-induced NBUDs, Median (History of Alcohol Use No): 0.00 per 1000 binucleated cells
- NNK-induced NPBs, Mean ± SE (History of Alcohol Use No): 2.40 ± 0.13 per 1000 binucleated cells
- NNK-induced NPBs, Median (History of Alcohol Use No): 2.00 per 1000 binucleated cells
- NNK-induced MN, Mean ± SE (History of Alcohol Use Yes): 2.61 ± 0.15 per 1000 binucleated cells
- NNK-induced MN, Median (History of Alcohol Use Yes): 2.00 per 1000 binucleated cells
- NNK-induced NBUDs, Mean ± SE (History of Alcohol Use Yes): 0.11 ± 0.04 per 1000 binucleated cells
- NNK-induced NBUDs, Median (History of Alcohol Use Yes): 0.00 per 1000 binucleated cells
- NNK-induced NPBs, Mean ± SE (History of Alcohol Use Yes): 2.32 ± 0.12 per 1000 binucleated cells
- NNK-induced NPBs, Median (History of Alcohol Use Yes): 2.00 per 1000 binucleated cells
- NNK-induced MN, Mean ± SE (Males): 2.63 ± 0.11 per 1000 binucleated cells
- NNK-induced MN, Median (Males): 3.0 per 1000 binucleated cells
- NNK-induced NBUDs, Mean ± SE (Males): 0.12 ± 0.03 per 1000 binucleated cells
- NNK-induced NBUDs, Median (Males): 0.0 per 1000 binucleated cells
- NNK-induced NPBs, Mean ± SE (Males): 2.27 ± 0.10 per 1000 binucleated cells
- NNK-induced NPBs, Median (Males): 2.0 per 1000 binucleated cells
- NNK-induced MN, Mean ± SE (Overall): 2.62±0.10 per 1000 binucleated cells and 2.62 ± 0.1 per 1000 binucleated cells
- NNK-induced MN, Median (Overall): 3.0 per 1000 binucleated cells and 3 per 1000 binucleated cells
- NNK-induced NBUDs, Mean ± SE (Overall): 0.12±0.03 per 1000 binucleated cells
- NNK-induced NBUDs, Median (Overall): 0.0 per 1000 binucleated cells and 0 per 1000 binucleated cells
- NNK-induced NPBs, Mean ± SE (Overall): 2.38±0.09 per 1000 binucleated cells
- NNK-induced NPBs, Median (Overall): 2.0 per 1000 binucleated cells and 2 per 1000 binucleated cells
- NNK-induced MN, Mean ± SE (Years smoked > 32): 2.69 ± 0.12 per 1000 binucleated cells
- NNK-induced MN, Median (Years smoked > 32): 3.0 per 1000 binucleated cells
- NNK-induced NBUDs, Mean ± SE (Years smoked > 32): 0.13 ± 0.04 per 1000 binucleated cells
- NNK-induced NBUDs, Median (Years smoked > 32): 0.0 per 1000 binucleated cells
- NNK-induced NPBs, Mean ± SE (Years smoked > 32): 2.39 ± 0.09 per 1000 binucleated cells
- NNK-induced NPBs, Median (Years smoked > 32): 2.0 per 1000 binucleated cells
- NNK-induced MN, Mean ± SE (Years smoked ≦ 32): 2.33 ± 1.02 per 1000 binucleated cells
- NNK-induced MN, Median (Years smoked ≦ 32): 2.0 per 1000 binucleated cells
- NNK-induced NBUDs, Mean ± SE (Years smoked ≦ 32): 0.06 ± 0.04 per 1000 binucleated cells
- NNK-induced NBUDs, Median (Years smoked ≦ 32): 0.0 per 1000 binucleated cells
- NNK-induced NPBs, Mean ± SE (Years smoked ≦ 32): 2.36 ± 0.19 per 1000 binucleated cells
- NNK-induced NPBs, Median (Years smoked ≦ 32): 2.0 per 1000 binucleated cells
- Control Subjects, % with 1 or 2 NNK-induced MN [1]: 49% and 49.2%
- Control Subjects, % with 3 or 4 NNK-induced MN [1]: 44.6%
- Control Subjects, % with ≧5 NNK-induced MN [1]: 6% and 6.2%
- Control Subjects, No. with 1 or 2 NNK-induced MN [1]: 64
- Control Subjects, No. with 3 or 4 NNK-induced MN [1]: 58
- Control Subjects, No. with ≧5 NNK-induced MN [1]: 8
- Case Patients, % with 1 or 2 NNK-induced MN [2]: 4% and 3.6%
- Case Patients, % with 3 or 4 NNK-induced MN [2]: 56.1%
- Case Patients, No. with 1 or 2 NNK-induced MN [2]: 5
- Case Patients, No. with 3 or 4 NNK-induced MN [2]: 78
- Case Patients, No. with ≧5 NNK-induced MN [2]: 56
- Increase in NNK-induced MN frequency, lung cancer patients over controls [3]: 1.6 fold
- Increase in NNK-induced NBUD frequency, lung cancer patients over controls [3]: 8.9 fold
- Increase in NNK-induced NPB frequency, lung cancer patients over controls [3]: 3.4 fold
- Control Subjects, % with 0 NNK-induced NBUDs [4]: 87% and 86.9%
- Control Subjects, % with 0 or 2 NNK-induced NPBs [4]: 65% and 64.6%
- Control Subjects, % with 1 NNK-induced NBUDs [4]: 11.5%
- Control Subjects, % with 3 or 5 NNK-induced NPBs [4]: 35.4%
- Control Subjects, No. with 0 NNK-induced NBUDs [4]: 113
- Control Subjects, No. with 0 or 2 NNK-induced NPBs [4]: 84
- Control Subjects, No. with 1 NNK-induced NBUDs [4]: 15
- Control Subjects, No. with 3 or 5 NNK-induced NPBs [4]: 46
- Control Subjects, No. with ≧2 NNK-induced NBUDs [4]: 2
- Control Subjects, No. with ≧6 NNK-induced NPBs [4]: 0
- Case Patients, % with 0 NNK-induced NBUDs [5]: 35% and 34.5%
- Case Patients, % with 1 NNK-induced NBUDs [5]: 42.5%
- Case Patients, % with 3 or 5 NNK-induced NPBs [5]: 10.8%
- Case Patients, No. with 0 NNK-induced NBUDs [5]: 48
- Case Patients, No. with 0 or 2 NNK-induced NPBs [5]: 0
- Case Patients, No. with 1 NNK-induced NBUDs [5]: 59
- Case Patients, No. with 3 or 5 NNK-induced NPBs [5]: 15
- Case Patients, No. with ≧2 NNK-induced NBUDs [5]: 32
- Case Patients, No. with ≧6 NNK-induced NPBs [5]: 124
